From the supplement of paper PMC10307832

Experiments:
Assay in all cases: relative viability (nuclei count vs DMSO), 5 days (fraction); higher = more cells survive
17-AAG + Lapatinib = compound: C=CCNC1=C2C[C@@H](C)C[C@H](OC)[C@H](O)[C@@H](C)/C=C(\C)[C@H](OC(N)=O)[C@@H](OC)/C=C\C=C(/C)C(=O)NC(=CC1=O)C2=O [17-AAG] + CS(=O)(=O)CCNCc1ccc(-c2ccc3ncnc(Nc4ccc(OCc5cccc(F)c5)c(Cl)c4)c3c2)o1 [Lapatinib] (partner 2 µM)
Method in brief: (§1)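 Lung cancer cell lines, seeded in 1536-well plates, were treated the following day by pin tool with a single drug or with five library-drug doses (not always all listed) in √10 steps on top of a fixed anchor-drug dose. Cells were fixed and nuclei stained in one step after 5 days, and nuclei were counted. Relative viability is the nuclei count for treated wells divided by that for vehicle wells, reported as medians of duplicate plates.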

17-AAG + Decitabine = compound: C=CCNC1=C2C[C@@H](C)C[C@H](OC)[C@H](O)[C@@H](C)/C=C(\C)[C@H](OC(N)=O)[C@@H](OC)/C=C\C=C(/C)C(=O)NC(=CC1=O)C2=O [17-AAG] + Nc1ncn([C@H]2C[C@H](O)[C@@H](CO)O2)c(=O)n1 [Decitabine] (partner 2 µM)
Method in brief: as §1

17-AAG + Luminespib = compound: C=CCNC1=C2C[C@@H](C)C[C@H](OC)[C@H](O)[C@@H](C)/C=C(\C)[C@H](OC(N)=O)[C@@H](OC)/C=C\C=C(/C)C(=O)NC(=CC1=O)C2=O [17-AAG] + CCNC(=O)c1noc(-c2cc(C(C)C)c(O)cc2O)c1-c1ccc(CN2CCOCC2)cc1 [Luminespib] (partner 0.01 µM)
Method in brief: as §1

17-AAG + Olaparib = compound: C=CCNC1=C2C[C@@H](C)C[C@H](OC)[C@H](O)[C@@H](C)/C=C(\C)[C@H](OC(N)=O)[C@@H](OC)/C=C\C=C(/C)C(=O)NC(=CC1=O)C2=O [17-AAG] + O=C(c1cc(Cc2n[nH]c(=O)c3ccccc23)ccc1F)N1CCN(C(=O)C2CC2)CC1 [Olaparib] (partner 8 µM)
Method in brief: as §1

Row | Cell Line | relative viability (17-AAG + Lapatinib; first compound 0.00128 µM) | relative viability (17-AAG + Lapatinib; first compound 0.004048 µM) | relative viability (17-AAG + Lapatinib; first compound 0.0128 µM) | relative viability (17-AAG + Lapatinib; first compound 0.04048 µM) | relative viability (17-AAG + Lapatinib; first compound 0.128 µM) | relative viability (17-AAG + Decitabine; first compound 0.00128 µM) | relative viability (17-AAG + Decitabine; first compound 0.004048 µM) | relative viability (17-AAG + Decitabine; first compound 0.0128 µM) | relative viability (17-AAG + Decitabine; first compound 0.04048 µM) | relative viability (17-AAG + Decitabine; first compound 0.128 µM) | relative viability (17-AAG + Luminespib; first compound 0.00128 µM) | relative viability (17-AAG + Luminespib; first compound 0.004048 µM) | relative viability (17-AAG + Luminespib; first compound 0.0128 µM) | relative viability (17-AAG + Luminespib; first compound 0.04048 µM) | relative viability (17-AAG + Luminespib; first compound 0.128 µM) | relative viability (17-AAG + Olaparib; first compound 0.00128 µM) | relative viability (17-AAG + Olaparib; first compound 0.004048 µM) | relative viability (17-AAG + Olaparib; first compound 0.0128 µM) | relative viability (17-AAG + Olaparib; first compound 0.04048 µM) | relative viability (17-AAG + Olaparib; first compound 0.128 µM)
1 | NCI-H460 | 0.962 | 0.451 | 0.016 | 0.0135 | 0.0137 | 0.333 | 0.321 | 0.0276 | 0.0244 | 0.0254 | 0.0254 | 0.0275 | 0.0254 | 0.0299 | 0.023 | 0.476 | 0.318 | 0.0627 | 0.0448 | 0.0462
2 | NCI-H1793 | 0.447 | 0.434 | 0.35 | 0.217 | 0.156 | 0.429 | 0.382 | 0.225 | 0.21 | 0.159 | 0.191 | 0.149 | 0.136 | 0.16 | 0.169 | 0.903 | 0.594 | 0.184 | 0.198 | 0.141
3 | NCI-H23 | 0.933 | 0.882 | 0.233 | 0.204 | 0.131 | 0.294 | 0.226 | 0.251 | 0.185 | 0.16 | 0.242 | 0.208 | 0.19 | 0.206 | 0.202 | 0.364 | 0.296 | 0.155 | 0.109 | 0.107
4 | HARA | 0.694 | 0.811 | 0.692 | 0.831 | 0.325 | 0.517 | 0.57 | 0.617 | 0.569 | 0.232 | 0.831 | 0.544 | 0.757 | 0.525 | 0.207 | 0.891 | 0.78 | 1.02 | 1.18 | 0.18
5 | NCI-H1792 | 0.783 | 1.02 | 0.704 | 0.638 | 0.115 | 0.444 | 0.345 | 0.194 | 0.12 | 0.0575 | 0.351 | 0.418 | 0.255 | 0.268 | 0.213 | 0.456 | 0.284 | 0.221 | 0.0633 | 0.0524
6 | NCI-H1703 | 0.998 | 0.315 | 0.182 | 0.176 | 0.208 | – | – | – | – | – | – | – | – | – | – | 0.512 | 0.183 | 0.144 | 0.164 | 0.105
7 | NCI-H2342 | – | – | – | – | – | 0.735 | 0.686 | 0.739 | 0.77 | 0.619 | 0.695 | 0.689 | 0.602 | 0.402 | 0.38 | 0.506 | 0.4 | 0.487 | 0.437 | 0.374
8 | CAL-12T | 0.645 | 0.598 | 0.611 | 0.527 | 0.334 | – | – | – | – | – | 0.33 | 0.331 | 0.175 | 0.14 | 0.113 | 0.754 | 0.697 | 0.725 | 0.371 | 0.211
9 | NCI-H838 | 1.02 | 0.878 | 0.141 | 0.121 | 0.0916 | 0.405 | 0.45 | 0.217 | 0.195 | 0.2 | 0.192 | 0.196 | 0.151 | 0.157 | 0.12 | 0.768 | 0.591 | 0.139 | 0.128 | 0.133
